Assays:
[1] = molecular target: T1, Adenosine receptor A1 (Rattus norvegicus, UniProt P25099)
T1 sequence (P25099 whole entry): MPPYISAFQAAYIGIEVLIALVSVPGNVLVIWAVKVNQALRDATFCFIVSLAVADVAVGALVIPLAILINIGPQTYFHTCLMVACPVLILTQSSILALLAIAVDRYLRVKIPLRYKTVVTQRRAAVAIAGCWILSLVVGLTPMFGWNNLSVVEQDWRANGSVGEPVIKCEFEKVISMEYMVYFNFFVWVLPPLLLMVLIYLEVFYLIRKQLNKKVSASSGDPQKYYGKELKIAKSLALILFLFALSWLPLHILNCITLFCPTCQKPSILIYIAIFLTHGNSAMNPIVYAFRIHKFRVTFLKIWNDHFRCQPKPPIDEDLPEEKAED
Description: Binding affinity against adenosine A1 receptor in rat brain membranes using [3H]CHA as radioligand

[2] = tested on: Rattus norvegicus; test: Dose producing 30% decrease of blood pressure in anesthetized rats (SHR); format: functional
[3] = tested on: Rattus norvegicus; test: Dose producing 10% decrease of heart rate in anesthetized rats (SHR); format: functional
[4] = molecular target: T2, Adenosine A2 receptor (Rattus norvegicus, UniProt P29276+P30543)
Description: Binding affinity against adenosine A2 receptor in rat striatal membranes using [3H]NECA as radioligand

[5] = molecular target: T2, Adenosine A2 receptor; test: Binding affinity against adenosine A2 receptor in rat striatal membranes using [3H]NECA; format: cell membranes, Striatum, Membrane
[6] = molecular target: T1, Adenosine receptor A1; test: Binding affinity against adenosine A1 receptor in rat brain membranes using [3H]-CHA; format: cell membranes

| Structure (SMILES) | Ki [1] | Ki [4] | Ki [5] | Ki [6] | ED30 [2] | ED10 [3] |
| --- | --- | --- | --- | --- | --- | --- |
| CCCCCCC#Cc1nc(N)c2ncn([C@@H]3O[C@H](CO)[C@@H](O)[C@H]3O)c2n1 | 202 nM | 12.1 nM |  |  | 0.34 µg/kg | > 100 µg/kg |
| CCCCCCC#Cc1nc2c(N)ncnc2n1C1O[C@H](CO)[C@@H](O)[C@H]1O (some centres not stated) | > 567 nM | > 567 nM |  |  | > 100 µg/kg | > 100 µg/kg |
| CCCCCCCC#Cc1nc(N)c2ncn([C@@H]3O[C@H](CO)[C@@H](O)[C@H]3O)c2n1 | 257 nM | 33.7 nM |  |  | 0.53 µg/kg | > 100 µg/kg |
| CCCCCC#Cc1nc(N)c2ncn([C@@H]3O[C@H](CO)[C@@H](O)[C@H]3O)c2n1 | 170 nM | 5.4 nM |  |  | 0.14 µg/kg | > 100 µg/kg |
| CCCCCCCCC#Cc1nc(N)c2ncn([C@@H]3O[C@H](CO)[C@@H](O)[C@H]3O)c2n1 | 232 nM | 32.8 nM |  |  | 0.46 µg/kg | > 100 µg/kg |
| COCC#Cc1nc(N)c2ncn([C@@H]3O[C@H](CO)[C@@H](O)[C@H]3O)c2n1 | 38.1 nM | 88.1 nM |  |  | 23.8 µg/kg | 44.2 µg/kg |
| CCCCCCCCCCC#Cc1nc(N)c2ncn(C3O[C@H](CO)[C@@H](O)[C@H]3O)c2n1 (some centres not stated) |  |  | 44.6 nM | 267 nM | 2.05 µg/kg | > 100 µg/kg |
| COc1cc(OC)cc(C(CNc2ncnc3c2ncn3[C@@H]2O[C@H](CO)[C@@H](O)[C@H]2O)c2ccccc2C)c1 (some centres not stated) | 103 nM |  |  |  | 12.1 µg/kg | > 100 µg/kg |
| CCNC(=O)[C@H]1O[C@@H](n2cnc3c(N)nc(NCCc4ccc(CCC(=O)O)cc4)nc32)[C@H](O)[C@@H]1O [CGS-21680] |  |  |  |  | 0.83 µg/kg | > 100 µg/kg |
| CCCCOCC#Cc1nc(N)c2ncn([C@@H]3O[C@H](CO)[C@@H](O)[C@H]3O)c2n1 | 18.5 nM | 10.6 nM |  |  | 1.06 µg/kg | 9.59 µg/kg |
| CCCOCCC#Cc1nc(N)c2ncn(C3O[C@H](CO)[C@@H](O)[C@H]3O)c2n1 (some centres not stated) | 128 nM | 10.2 nM |  |  | 1.1 µg/kg | 79.9 µg/kg |
| CCCCCCCCOCCC#Cc1nc(N)c2ncn([C@@H]3O[C@H](CO)[C@@H](O)[C@H]3O)c2n1 | 1500 nM | 307 nM |  |  | 9.16 µg/kg | > 100 µg/kg |
| CCOCCCC#Cc1nc(N)c2ncn([C@@H]3O[C@H](CO)[C@@H](O)[C@H]3O)c2n1 | 244 nM | 12.8 nM |  |  | 1.42 µg/kg | > 100 µg/kg |
| CCCCCCC#Cc1ncnc2c1ncn2C1O[C@H](CO)[C@@H](O)[C@H]1O (some centres not stated) | > 567 nM | > 567 nM |  |  | > 100 µg/kg | > 100 µg/kg |
| CCNC(=O)[C@H]1O[C@@H](n2cnc3c(N)ncnc32)[C@H](O)[C@@H]1O [NECA] |  |  |  |  | 0.19 µg/kg | 0.35 µg/kg |
| CCC#Cc1nc(N)c2ncn([C@@H]3O[C@H](CO)[C@@H](O)[C@H]3O)c2n1 | 186 nM | 21.2 nM |  |  | 0.48 µg/kg | 18.4 µg/kg |

Now from value to compound, other results behind:

| Ki [1] | Ki [4] | Ki [5] | Ki [6] | Structure (SMILES) | ED30 [2] | ED10 [3] |
| --- | --- | --- | --- | --- | --- | --- |
| > 567 nM | > 567 nM |  |  | CCCCCCC#Cc1nc(O)c2ncn(C3O[C@H](CO)[C@@H](O)[C@H]3O)c2n1 (some centres not stated) | > 100 µg/kg | > 100 µg/kg |
| > 567 nM | > 567 nM |  |  | CCCCCCC#Cc1nc(N)c2[nH]cnc2n1 | > 100 µg/kg | > 100 µg/kg |
| 69.8 nM | 630 nM |  |  | C[Si](C)(C)C#Cc1nc(N)c2ncn([C@@H]3O[C@H](CO)[C@@H](O)[C@H]3O)c2n1 | 1.15 µg/kg | > 100 µg/kg |
| > 567 nM | 150 nM |  |  | CCCCCC/C=C\c1nc(N)c2ncn(C3O[C@H](CO)[C@@H](O)[C@H]3O)c2n1 (some centres not stated) | 5 µg/kg | > 100 µg/kg |
| 81.4 nM | 40.1 nM |  |  | Nc1nc(C#CCCO)nc2c1ncn2[C@@H]1O[C@H](CO)[C@@H](O)[C@H]1O | 2.53 µg/kg | 15.3 µg/kg |
| > 567 nM | > 567 nM |  |  | CCCCCCCCc1nc(N)c2ncn(C3O[C@H](CO)[C@@H](O)[C@H]3O)c2n1 (some centres not stated) | > 100 µg/kg | > 100 µg/kg |
| 272 nM | 37.6 nM |  |  | C#Cc1nc(N)c2ncn(C3O[C@H](CO)[C@@H](O)[C@H]3O)c2n1 (some centres not stated) | 5.91 µg/kg | 5.76 µg/kg |
|  | 421 nM |  |  | OC[C@H]1O[C@@H](n2cnc3c(NC4CCCC4)ncnc32)[C@H](O)[C@@H]1O [N6-CYCLOPENTYLADENOSINE] | 0.5 µg/kg | 0.14 µg/kg |
| > 567 nM | > 567 nM |  |  | CC(=O)c1nc(N)c2ncn(C3O[C@H](CO)[C@@H](O)[C@H]3O)c2n1 (some centres not stated) | 46.7 µg/kg | 50.3 µg/kg |
| 10.1 nM | 20.5 nM |  |  | Nc1nc(C#CCO)nc2c1ncn2[C@@H]1O[C@H](CO)[C@@H](O)[C@H]1O | 0.95 µg/kg | 1.19 µg/kg |
| > 567 nM | > 567 nM |  |  | CCc1nc(N)c2ncn(C3O[C@H](CO)[C@@H](O)[C@H]3O)c2n1 (some centres not stated) | > 100 µg/kg | > 100 µg/kg |
| 126 nM |  |  |  | CCCCC#Cc1nc(N)c2ncn([C@@H]3O[C@H](CO)[C@@H](O)[C@H]3O)c2n1 | 0.11 µg/kg | 66.9 µg/kg |
| 154 nM | 7.5 nM |  |  | CCCC#Cc1nc(N)c2ncn([C@@H]3O[C@H](CO)[C@@H](O)[C@H]3O)c2n1 | 0.18 µg/kg | 41.5 µg/kg |
|  | 107 nM |  |  | Nc1nc(Nc2ccccc2)nc2c1ncn2[C@@H]1O[C@H](CO)[C@@H](O)[C@H]1O | 5.82 µg/kg | > 100 µg/kg |

Source: ChEMBL document CHEMBL1126140, “Nucleosides and nucleotides. 103. 2-Alkynyladenosines: a novel class of selective adenosine A2 receptor agonists with potent antihypertensive effects” (J Med Chem, 1992)
